The record followed here is US11945807B2, “Splicing modulator antibody-drug conjugates and methods of use” (EISAI R&D MANAGEMENT CO., LTD., priority 2018, dated 2024).

Where two headings read alike, the source gives them in different places.

The test system of series [1] is HCC1954 cells. Put plainly: Cell viability CellTiter-Glo, HCC1954. The settings on record: Homo sapiens, HCC1954, read-out: Payload GI50 (nM).
Series [2] deals with THP1.1. Kind of series: Payload cell potency and lethality CTGlo 72 h, THP1.1. The settings on record: for CTGlo-AT S Mean Min-Response % 72 h THP1.1: unconjugated payload. The format is cell-based.
Series [3] in a line: Chemical stability of ADC payload, pH 5.5 buffer. Type of series: physicochemical. The settings on record: for half-life at 20 μM: McIlvaine (citrate-phosphate) buffer, unconjugated payload, Citrate-Phosphate buffer pH 5.5, 37° C., read-out: Stability Mean Stability t1/2 pH5.5 (converted). The source says:
(Eppendorf ThermoMixer). […] Time 0 was set to 100.

Series [4] relates to NCIH1650.1. Kind of series: Payload cellular potency CTGlo-ATS 72 h, NCIH1650.1. Type of series: cell-based. Conditions: cell line #1, 72 h, corresponding free payload.
Series [5] deals with PC3 cells. Kind of series: Cell viability CellTiter-Glo, PC3 (EPHA2-expressing). The format is cell-based. The settings on record: for GI50: Homo sapiens, PC-3, free payload of the ADC; for Payload Rmin (%): free payload of the ADC. (ATP-based viability assays read luminescence as a measure of living cells.)
Experimental: (§1) HCC1954 (American Type Culture Collection (ATCC)) breast ductal carcinoma cells were plated at 2000 cells/well in flat bottom 96-well tissue culture plates (Corning) in a total volume of 90 μL tissue culture medium supplemented with 10% fetal bovine serum (ThermoFisher Scientific). Cells were treated with a 3-fold serial dilution of compound from 200 nM to 0.03 nM. Each concentration was tested in triplicate. At the time of treatment, a plate of untreated cells was evaluated using CellTiter-Glo®2.0 Luminescent Cell Viability Assay according to the manufacturers recommendations (Promega; #G9241). CellTiter-Glo® 2.0 reagent was added to the medium, incubated, and assayed on an EnVision Multilabel Reader (PerkinElmer). Values represent time zero (T0). […] Percentage growth inhibition was calculated as: [(T144−T0)/(C−T0)]×100 for concentrations for which T144>/=T0 or [(T144−T0)/T0]×100 for concentrations for which T144<T0. The dose response curve plots were generated using Prism 7 (Graphpad) and fit using nonlinear regression analysis and the log(inhibitor) versus response-variable slope (four parameters).
(§2) Anti-CD138 ADCs were tested in the CD138-expressing MOLP8 multiple myeloma cell line. Similarly, anti-EPHA2 ADCs were tested in the EPHA2-expressing PC3 prostate cancer cell line.
The test system of series [6] is NCIH1568.1. Kind of series: Payload cellular potency CTGlo-ATS 72 h, NCIH1568.1. Conditions: cell line #2, 72 h, corresponding free payload. The format is cell-based.
In series [7] the target is T1, SF3b complex (Homo sapiens, UniProt O75533+Q7RTV0).
T1 construct: The beads were suspended and added to the prepared nuclear extracts; endogenous in cells; host or cells: nuclear extracts
Put plainly: SF3B1 binding / scintillation proximity assay (SPA).
Experimental: A scintillation proximity assay was performed to measure the binding affinity of compounds (“payloads”) to the SF3b complex. Batch immobilization of anti-SF3B1 antibody (MBL) to anti-mouse PVT SPA scintillation beads (PerkinElmer) was prepared as follows: for every 2.5 mg of nuclear extracts, 5 μg of anti-SF3B1 antibody and 1.5 mg of beads were mixed in 150 μL PBS. The antibody-bead mixture was incubated for 30 min at RT and centrifuged at 18,000 g for 5 min. 150 μL PBS was used to resuspend every 1.5 mg antibody-bead mixture. The beads were suspended and added to the prepared nuclear extracts. The slurry was incubated for 2 hours at 4° C. with gentle mixing. The beads were then collected by centrifuging at 18,000 g for 5 min, and washed twice with PBS+0.1% Triton X-100. After a final centrifugation step, every 1.5 mg of beads was suspended with 150 μL of PBS. […] The mixture was incubated for 30 min, and luminescence signals were read using a MicroBeta2 Plate Counter (PerkinElmer). Prism 7 (Graphpad) was used for non-linear regression curve fitting of the data.

Series [8] has as its system MCF7 cells. Kind of series: Cell viability CellTiter-Glo, MCF7 (HER2-negative). The format is cell-based. The settings on record: Homo sapiens, unconjugated payload of the ADC.
Experimental: as §1
(§3) HCC1954 (ATCC), 2000 cells/well), N87 (ATCC, 4000 cells/well), SKBR3 (ATCC, 3000 cells/well), and MCF7 (ATCC, 1500 cells/well) cell lines were used.
In series [9] the test system is Caco-2 cells. Kind of series: Caco-2 permeability of ADC payload. The format is in vitro ADME. Conditions: corresponding free payload. Background: Caco-2 cells form a polarised layer with tight junctions and transporters.
Experimental: (§4) Integrity of cell monolayer was confirmed by TEER (transepithelial electrical resistance) and Lucifer yellow. Payloads were spiked in duplicate at 10 NM, separately, on both sides of the cell monolayer. Permeability rates from the apical to basolateral (A-B) direction and the basolateral to apical (B-A) direction were determined by sampling aliquots from both chambers immediately after treatment (t=0) and following incubation for 2 hours. Samples were protein precipitated with organic solvent containing internal standard and analyzed by LC-MS/MS (SCIEX; API 5500). The area ratio responses of payload/internal standard over time in both directions were used to generate permeability (cm/sec) values.
Series [10] in a line: Caco-2 permeability of ADC payload. The format is in vitro ADME. Conditions: human; for Papp B→A at 2 h, 10 NM: basolateral to apical, read-out: Permeability Mean Caco-2 B-A Perm (10e−G cm/s).
Experimental: as §4
The test system of series [11] is N87 cells. Put plainly: Cell viability CellTiter-Glo, N87. Conditions: unconjugated payload of the ADC; for GI50: Homo sapiens. Type of series: cell-based, human.
Experimental: as §1, §3
For series [12], the system named is MOLP8 cells. Put plainly: Cell viability CellTiter-Glo, MOLP8 (CD138-expressing). Type of series: cell-based.
Experimental: as §1, §2
Setting [13] is: unconjugated payload, [3H]-pladienolide B probe displacement, read-out: SPA-AT S GMean IC50 (nM) SF381 (WT) HELA.2.
The mark [14] stands for this setting: Caco-2, unconjugated payload, apical to basolateral, 2 hours, read-out: Permeability Mean Caco-2 A-B Perm (10e−6 cm/s).
[15] abbreviates: Caco-2, unconjugated payload, 2 hours.

Broadly, the GI50 is the concentration that inhibits growth by half. The term IC50 denotes the concentration that gives 50% inhibition. As for `CC[C@H](O)[C@@H](C)C1OC1C[C@@](C)(O)/C=C/C=C(\C)[C@H]1OC(=O)C[C@H](O)CC[C@@](C)(OC)[C@@H](OC(=O)N2CCNCC2)/C=C/[C@@H]1C` (stereo in doubt) [D1, (2S,3S,6S,7R,10R,E)-10-hydroxy-2-((R,2E,4E)-6-hydroxy-7-((2S,3S)-3-((2R,3S)-3-hydroxypentan-2-yl)oxiran-2-yl)-6-methylhepta-2,4-dien-2-yl)-7-methoxy-3,7-dimethyl-12-oxooxacyclododec-4-en-6-yl piperazine-1-carboxylate], the GI50 amounted to 1.85 nM in series [1]; 11.1 nM in series [2] (read-out: CTGlo-ATS GMean GI50 (nM) 72 h THP1.1, cell line #3, 72 h, corresponding free payload); 12.1 nM in series [4] (read-out: CTGlo-ATS GMean GI50 (nM) 72 h NCIH1650.1); 13.3 nM in [5]; 7.36 nM in [6] (read-out: CTGlo-ATS GMean GI50 (nM) 72 h NCIH1568.1); 17 nM in [8]. Further, in [11], the GI50 was determined as 7.04 nM. Moreover, in series [2], the “CTGlo-AT S Mean Min-Response % 72 h THP1.1” value is recorded as −100.615%. The half-life at 20 μM in series [3] was 94.8 h. Further, in series [4], the “CTGlo-ATS GMean LD50 (nM) 72 h NCIH1650.1” value is on record as more than 10000.00 nM. Further, the figures for the “Payload Rmin (%)” value in series [5] and in series [11] were −71.987% and −40.041%, respectively. For the same molecule, the “CTGlo-ATS GMean LD50 (nM) 72 h NCIH1568.1” value in [6] is 65.737 nM. Besides, the concentration for half-maximal inhibition (IC50) was found to be 6.08 nM in series [7] (target binding, corresponding free payload, read-out: SPA-ATS GMean IC50 (nM) SF3B1 (WT) HELA.2) and 6.08 nM in [7] (setting [13]). Also, in [9] (A-B), the “Perm. Mean Caco 2 A-B Perm (10e−6 cm/s)” value is 0.14 10e−6 cm/s. In series [9] (B-A), the “Perm. Mean Caco 2 B-A Perm (10e−6 cm/s)” value is on record as 2.05 10e−6 cm/s. Further, the Papp A→B at 2 h, 10 NM in [10] (setting [14]) was 0.14 ×10⁻⁶ cm/s. The Papp B→A at 2 h, 10 NM in series [10] (setting [15]) is 2.05 ×10⁻⁶ cm/s.
With `CC[C@H](O)[C@@H](C)[C@H]1O[C@@H]1C[C@@](C)(O)/C=C/C=C(\C)[C@H]1OC(=O)C[C@H](O)CC[C@@](C)(OC)[C@@H](OC(=O)N2CCN(C)CC2)/C=C/[C@@H]1C` [D2, (2S,3S,6S,7R,10R,E)-10-hydroxy-2-((R,2E,4E)-6-hydroxy-7-((2R,3R)-3-((2R,3S)-3-hydroxypentan-2-yl)oxiran-2-yl)-6-methylhepta-2,4-dien-2-yl)-7-methoxy-3,7-dimethyl-12-oxooxacyclododec-4-en-6-yl 4-methylpiperazine-1-carboxylate], the GI50 in series [1] turned out to be 0.6 nM; in [5], 2.39 nM; in [12] (Homo sapiens, MOLP-8, unconjugated payload of the ADC in the row, read-out: Payload GI50), 0.316 nM; in series [8], 2.85 nM; in [11] it was 0.749 nM. Further, the “CTGlo-AT S Mean Min-Response % 72 h THP1.1” value in [2] is −100.218%. The half-life at 20 μM in series [3] was 96 h. In [3] (pH 5.5, 37 C., corresponding payload), the “pH 5.5 Stability (t1/2, 37 C.)” value came out at 4. Also, the entries for the “Payload Rmin (%)” value in series [5], in [12] (unconjugated payload of the ADC) and in [11] were −68.803%, −100.198% and −72.706%, respectively. Moreover, the IC50 in series [7] (setting [13]) was 15.5 nM. Moreover, the Papp A→B at 2 h, 10 NM in series [10] (Caco-2, A-B, corresponding payload (Table 26), read-out: Permeability Caco-2 A-B (10e−6 cm/s)) was 0.6 ×10⁻⁶ cm/s; in series [10] (setting [14]), 0.624 ×10⁻⁶ cm/s. In addition, the Papp B→A at 2 h, 10 NM in series [10] (setting [15]) was 14.2 ×10⁻⁶ cm/s.
